# Assays:
# Type in all cases: biochemical, Bacillus circulans
# [1] = half-life in β-galactosidase-catalyzed hydrolysis (pseudo first order kinetics); conditions: potassium phosphate buffer with β-galactosidase; 5 mM compound, enzyme 140 unit per mmol, 50 mM potassium phosphate buffer pH 7.0, absorbance at 420 nm; read-out: T1/2 toward the β-galactosidase-catalyzed hydrolysis (converted)
# Procedure: (§1) The half-lives of compounds 2 and 4 determined from the pseudo first order kinetics of the β-galactosidase-catalyzed hydrolysis were measured as below. 2: A 0.5-mL solution of potassium phosphate buffer (50 mM, pH 7.0) containing 2 (5 mM) and β-galactosidase (140 unit per 1 mmol of 2) was measured continuously in a plastic cell with a 1 cm light path at 420 nm against a control in the absence of the enzyme. 4: A 5-mM solution of 4 and the enzyme (140 U/mmol) in D2 O was poured into an NMR tube, the ratio between the released 3 and remaining 4 was determined periodically by the integration of 6-H of 4 (3.98 ppm) and 6-H of 3 (3.88 ppm).
# [2] = test system: β-galactosidase; assay: initial reaction rate of β-galactosidase-catalyzed reaction (released p-nitrophenol, 420 nm); conditions: 0.05M donor, 0.05M potassium phosphate buffer pH 7.0, room temperature
# Procedure: FIG. 2 illustrates the comparison of β-galactosidase-catalyzed reaction using galactopyranose (GalβOpNP) and galactohexodialdose (6-oxo-GalβOpNP). (a): The reaction mixture containing 0.05M of donor, and various concentrations of N-acetyl-D-glucosamine in 0.05M potassium phosphate buffer (pH 7.0) was gently stirred at room temperature in the presence of the enzyme (140 U/mmol of donor) for 24 hours; (b) The mixture (containing the same components as described in (a)) was incubated with shaking for 5-10 min at room temperature. Absorbance was measured at 420 nm; (C) Methyl-β-N-acetyl-D-lactosamine (5) was obtained by reduction with NaBH4 followed by product isolation.
# In order to determine which step is kinetically controlled, the effect of acceptors on initial reaction rate, (V)0, was investigated (FIG. 2). […] Addition of water soluble organic solvent would reduce water activity to some extent, but it often causes substrate and/or product inhibition and makes the enzyme unstable (Kieboom et al., Recl. Trav. Chim. Pays-Bas 1988, 107, 347-348). To shift the reaction toward transglycosylation in water, it is therefore necessary to kinetically control the partitioning step to favor the transglycosylation.
# [3] = test system: β-galactosidase; assay: half-life in β-galactosidase-catalyzed hydrolysis (pseudo first order kinetics); conditions: 5 mM compound, enzyme 140 U/mmol, in D2O, NMR integration of released 3 vs remaining 4
# Procedure: as §1
Compound,half-life at 5000 µM [1] [min],substrate quality for β-galactosidase [2],T1/2 toward the β-galactosidase-catalyzed hydrolysis [3] [min]
"O=[N+]([O-])c1ccc(O[C@@H]2O[C@H](C(O)O)[C@H](O)[C@H](O)[C@H]2O)cc1 [Compound 2, p-nitrophenyl glycoside of D-galactohexodialdose]",24,relatively weak substrate,
6'-oxo-LacNAc [Compound 4],,,1860

# — US5876981A, “Transglycosylation reactions employing β-galactosidase” (The Scripps Research Institute, priority 1996, dated 1999)
